From PMC2833169, “Anti-malarial activity of a non-piperidine library of next-generation quinoline methanols” (Malaria Journal, 2010)
In brackets after ≈: the same amount, converted by molar mass.

How the values were obtained:
[1] = tested on: MDR1-transfected MDCK cell monolayers; assay: in vitro; settings: dog, MDCK-MDR1, 2 h, 5 μM, pH 7.4
Description: (§1) For this reason, the apparent permeability of selected compounds across MDR1-transfected MDCK cell monolayers was determined. This assay is an in vitro surrogate of the blood-brain barrier.
(§2) Permeability was determined by Absorption Systems (Exton, PA). MDR1-MDCK cell monolayers were grown to confluence on collagen-coated, microporous, polycarbonate membranes in 12-well Costar Transwell plates. […] The permeability assay buffer was Hanks Balanced Salt Solution containing 10 mM HEPES and 15 mM glucose at a pH of 7.4. A known p-glycoprotein inhibitor cyclosporin A (CSA) was also added to the assay buffer at 10 μM. Bovine serum albumin (1%) was added to the receiver well. The dosing solution concentrations of the test compounds were 5.0 μM in the assay buffer. All cell monolayers were first pre-incubated for 30 minutes with assay buffer. After 30 minutes, the buffer was removed, replaced with fresh buffer, and time was recorded as 0. […] Cell monolayers were dosed on the apical side (A-to-B) or basolateral side (B-to-A) and incubated at 37°C with 5% CO2 in a humidified incubator. After 2 hours, aliquots were taken from the receiver chambers. Samples were taken from the donor chamber at 0 and 2 hours. Each determination was performed in duplicate. The lucifer yellow flux was also measured for each monolayer to ensure no damage was inflicted to the cell monolayers during the flux period. All samples were assayed by LC/MS/MS using electrospray ionization.
(§3) Apparent permeability in the apical (A-B direction), PappA-B, and percent recovery are reported. Apparent permeability is a measure of the rate of transport across the cell monolayer. Percent recovery refers to the amount of compound recoverable at the end of the assay. Low recovery may indicate non-specific binding to assay plates, instability or accumulation in the cell pellet.
(§4) The apparent permeability, Papp, and percent recovery were calculated as follows:
(§5) Papp = (dCr/dt) × Vr/(A × C0) (1)
(§6) Percent Recovery = 100 × ((Vr × Cr^final) + (Vd × Cd^final))/(Vd × […]) (2)

CYP450 2D6 = target: T1, CYP450 2D6 (Homo sapiens, UniProt P10635); assay: CYP450 inhibition kit (drug-drug interaction), 2D6; type: biochemical
T1 construct: purchased BD Gentest (Franklin Lakes, NJ)
Description: Low IC50s against specific cytochrome P450 isoforms may indicate the potential for a harmful drug interaction to occur in vivo with substrates of that isoform. A lack of metabolic stability in vitro may indicate potential metabolic instability in vivo, and, therefore, a shorter half-life. Drug interaction potential was evaluated in vitro using BD Gentest (Franklin Lakes, NJ) CYP450 inhibition kits as recommended by the manufacturer. Metabolic stability assessments were conducted using in vitro liver microsomes. […] The reaction is started with the addition of 1 U/mL glucose-6-phosphate dehydrogenase G6PD. The mixture is incubated on a shaking platform at 37°C, and aliquots are taken and quenched with the addition of an equal volume of cold acetonitrile at 0, 10, 20, 30, and 60 min. Samples are centrifuged at 3700 rpm for […] at 20°C to remove debris. Sample quantification is carried out by LC/MS, and metabolic half-life is calculated by log plots of the total ion chromatograph area remaining.

in vitro [2] = settings: dog, MDCK-MDR1, pH 7.4
Description: as §1, §2, §3, §4, §5, §6

in vitro [3] = settings: mouse

T1 sequence (P10635 whole entry): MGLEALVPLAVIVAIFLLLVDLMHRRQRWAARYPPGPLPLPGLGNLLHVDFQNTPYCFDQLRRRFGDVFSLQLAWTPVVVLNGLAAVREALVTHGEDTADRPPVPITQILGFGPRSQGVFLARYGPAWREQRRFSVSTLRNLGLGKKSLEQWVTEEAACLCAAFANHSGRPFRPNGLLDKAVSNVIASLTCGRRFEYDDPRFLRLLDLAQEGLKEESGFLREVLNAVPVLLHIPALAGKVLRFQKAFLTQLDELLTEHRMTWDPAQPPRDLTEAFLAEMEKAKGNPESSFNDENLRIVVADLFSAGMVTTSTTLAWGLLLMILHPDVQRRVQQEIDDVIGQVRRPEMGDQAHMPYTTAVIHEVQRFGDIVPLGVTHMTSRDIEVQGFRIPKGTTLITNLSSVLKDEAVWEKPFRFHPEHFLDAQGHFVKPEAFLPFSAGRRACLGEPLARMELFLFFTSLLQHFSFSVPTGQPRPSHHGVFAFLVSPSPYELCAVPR

Structure (SMILES) | % recovery (MDCK-MDR1 permeability assay) [1] [%] | PappA-B MDCK-MDR1 [1] | IC50 (CYP450 2D6) [µM] | Papp A→B at 2 h, 5 μM (in vitro [2]) [×10⁻⁶ cm/s] | CC50 (in vitro [3]) [µg/mL]
CNCC(O)c1cc(C(F)(F)F)nc2c(C(F)(F)F)cccc12 (stereo not drawn) [WR308245] | 59 | 24 10^-6 cm/s | 7.4 |  | 
CC(C)NCC(O)c1cc(C(F)(F)F)nc2c(C(F)(F)F)cccc12 (stereo not drawn) [WR308257] | 69 |  | 1.9 | 25 | 
OC(CNCCNCc1ccccc1)c1cc(C(F)(F)F)nc2c(C(F)(F)F)cccc12 (stereo not drawn) [WR308396] |  | 8.4 10^-6 cm/s | 0.7 |  | 8.28 (≈ 18.1 µM)
CSCCCNCC(O)c1cc(C(F)(F)F)nc2c(C(F)(F)F)cccc12 (stereo not drawn) [WR308278] | 54 | 38 10^-6 cm/s | 1.4 |  | 
